The subject of this data set is GENE-TOX genotoxicity assays, various organisms and cells. Put plainly: GENE-TOX mutagenicity studies. The settings on record: for call: Assay Type: In vivo carcinogenicity studies.
Setting [1] is: Species/Cell Type: Human lymphocytes, Assay Type: Sister-chromatid exchange (SCE) in vitro, Assay Code: SCL+D, Dose Response: With dose response, Evaluation Type: Evaluation B (Post-1980).
Where [2] appears, read: Species/Cell Type: Human, Assay Type: Sister-chromatid exchange (SCE) in vitro, Assay Code: SC1+D, Dose Response: With dose response, Evaluation Type: Evaluation B (Post-1980).
Where [3] appears, read: Species/Cell Type: Nonhuman, Assay Code: CCG+, Evaluation Type: Evaluation A (Pre-1980).
[4] abbreviates: Species/Cell Type: Nonhuman, Assay Type: Sister-chromatid exchange (SCE) in vitro, Assay Code: SC2+D, Dose Response: With dose response, Evaluation Type: Evaluation B (Post-1980).
Setting [5] is: Species/Cell Type: Drosophila melanogaster, Assay Type: Sex-linked recessive lethal gene mutation, Assay Code: SRL+, Evaluation Type: Evaluation A (Pre-1980).
Where [6] appears, read: Species/Cell Type: Mammalian polychromatic erythrocytes, Assay Type: Micronucleus test, chromosome aberrations, Assay Code: MNT+, Evaluation Type: Evaluation B (Post-1980).
[7] abbreviates: Species/Cell Type: Nonhuman, Assay Type: Sister-chromatid exchange (SCE) in vitro, Assay Code: SC2+, Evaluation Type: Evaluation B (Post-1980).

Activity calls are given as the source filed them. How the calls were made is not given here. Numbered stars: 1 amine (or outer) side, 2 acyl side, 3 side chain; on linkers, the order of the positions; unused ones are H or OH. Peptide text beside a SMILES is read from it. CO = O=C([*:1])[*:2]

For `O=[Se]=O`, the mutagenic call (Species/Cell Type: Bacillus subtilis (H17 vs M45), Assay Type: Rec-assay, spot test, DNA effects (bacterial DNA repair), Assay Code: REW+, Evaluation Type: Evaluation A (Pre-1980)) is “active; positive”; the mutagenic call under setting [1] was “active; positive”; the mutagenic call under setting [2] is “active; positive”; the mutagenic call (Species/Cell Type: Nonhuman, Assay Type: Sister-chromatid exchange (SCE) in vitro, Assay Code: SC2-, Evaluation Type: Evaluation B (Post-1980)) was “inactive; negative”.
For `O[C@H]1C=Cc2c(cc3ccc4cccc5ccc2c3c45)[C@@H]1O`, the mutagenic call is, setting by setting: (Species/Cell Type: Chinese hamster lung (V79) cells, Assay Type: Forward gene mutation at the HPRT or ouabain locus, Assay Code: V79+*, Activation: With metabolic activation, Evaluation Type: Evaluation A (Pre-1980)) “active; positive”; (Species/Cell Type: Nonhuman, Assay Type: Sister-chromatid exchange (SCE) in vitro, Assay Code: SC2+D, Dose Response: With dose response, Evaluation Type: Evaluation A (Pre-1980)) “active; positive”; under setting [4], “active; positive”; (Species/Cell Type: Salmonella typhimurium (one or more of the five standard strains: TA98, TA100, TA1535, TA1537, and TA1538), Assay Type: Histidine reverse gene mutation, Ames assay, Assay Code: SAL+*, Activation: With metabolic activation, Evaluation Type: Evaluation A (Pre-1980)) “active; positive”. In addition, the call was “active; positive” under setting [3] and “active; positive” (Species/Cell Type: Nonhuman, Assay Code: CCG+L, Evaluation Type: Evaluation A (Pre-1980)).
Take `O=C(O)CCCc1ccc(N(CCCl)CCCl)cc1`: the mutagenic call reads like this: (Species/Cell Type: Chinese hamster ovary (CHO) cells, Assay Type: Forward gene mutation at the HPRT locus, Assay Code: CHO+, Evaluation Type: Evaluation B (Post-1980)) “active; positive”; under setting [5], “active; positive”; (Species/Cell Type: Human lymphocytes, Assay Type: Sister-chromatid exchange (SCE) in vitro, Assay Code: SCL+D, Dose Response: With dose response, Evaluation Type: Evaluation A (Pre-1980)) “active; positive”; under setting [1], “active; positive”; (Species/Cell Type: Human lymphocytes, Assay Type: Sister-chromatid exchange (SCE) in vivo, Assay Code: SCY+, Evaluation Type: Evaluation B (Post-1980)) “active; positive”; (Species/Cell Type: Human, Assay Type: Sister-chromatid exchange (SCE) in vitro, Assay Code: SC1+D, Dose Response: With dose response, Evaluation Type: Evaluation A (Pre-1980)) “active; positive”. For the same molecule, the mutagenic call under setting [2] was “active; positive”; the mutagenic call (Species/Cell Type: Human, Sex: Male, Assay Type: Sperm morphology, Assay Code: SPH+, Evaluation Type: Evaluation A (Pre-1980)) was “active; positive”; the mutagenic call under setting [6] was “active; positive”; the mutagenic call under setting [7] is “active; positive”; the mutagenic call (Species/Cell Type: Saccharomyces cerevisiae, Assay Type: Mitotic recombination or gene conversion, Assay Code: YEC+, Evaluation Type: Evaluation A (Pre-1980)) is “active; positive”; the mutagenic call (Species/Cell Type: Saccharomyces cerevisiae, Assay Type: Reverse gene mutation, Assay Code: YER+, Evaluation Type: Evaluation A (Pre-1980)) was “active; positive”. The call under setting [3] is “active; positive”.
Turning to `CC(C)[C@H](NC(=O)[C@H](CCCN=C(N)N)NC(=O)N[C@@H](Cc1ccccc1)C(=O)O)C(=O)N[C@H](C=O)CCCN=C(N)N` ({Phe-CO}-Arg-Val-Arg-aldehyde), the mutagenic call is “active; positive” (Species/Cell Type: Human, Assay Type: Sister-chromatid exchange (SCE) in vitro, Assay Code: SC1+, Evaluation Type: Evaluation B (Post-1980)); “inactive; negative” (Species/Cell Type: Mouse (C3H/10T1/2) cells, Assay Type: Cell transformation, Assay Code: CTH-, Evaluation Type: Evaluation A (Pre-1980)); “no conclusion” (Species/Cell Type: Nonhuman, Assay Type: Sister-chromatid exchange (SCE) in vitro, Assay Code: SC2T, Evaluation Type: Evaluation B (Post-1980)).
`CCN(CC)Cc1cc(Br)ccc1OCC(=O)NN`: the mutagenic call (Species/Cell Type: Saccharomyces cerevisiae, Assay Type: Reverse gene mutation, Assay Code: YERT, Evaluation Type: Evaluation A (Pre-1980)) is recorded as “no conclusion”.
With `Cn1sccc1=O`, the mutagenic call (Species/Cell Type: Mammalian polychromatic erythrocytes, Assay Type: Micronucleus test, chromosome aberrations, Assay Code: MNT-, Evaluation Type: Evaluation B (Post-1980)) is “inactive; negative”.
For the molecule `CC(CN1CC(=O)NC(=O)C1)N1CC(=O)NC(=O)C1` (stereo not given), the mutagenic call (Species/Cell Type: Salmonella typhimurium (one or more of the five standard strains: TA98, TA100, TA1535, TA1537, and TA1538), Assay Type: Histidine reverse gene mutation, Ames assay, Assay Code: SAL-, Evaluation Type: Evaluation A (Pre-1980)) is “inactive; negative”.
Turning to `CCCOC1=C(N2CC2)C(=O)C(OCCC)=C(N2CC2)C1=O`, the mutagenic call under setting [5] is “active; positive”, the mutagenic call under setting [1] was “active; positive” and the mutagenic call under setting [2] is “active; positive”.
As for `C=COC=C`, the mutagenic call under setting [7] was “active; positive”.
On to `NC(=O)N1c2ccccc2C2OC2c2ccccc21` (stereo not given), for which the mutagenic call (Species/Cell Type: Human lymphocytes, Assay Type: Sister-chromatid exchange (SCE) in vitro, Assay Code: SCLT, Evaluation Type: Evaluation B (Post-1980)) is recorded as “no conclusion”; the mutagenic call (Species/Cell Type: Salmonella typhimurium (one or more of the five standard strains: TA98, TA100, TA1535, TA1537, and TA1538), Assay Type: Histidine reverse gene mutation, Ames assay, Assay Code: SALT, Evaluation Type: Evaluation A (Pre-1980)) was “no conclusion”.
As to `CCC(C)Br` (stereo not given), the mutagenic call (Species/Cell Type: Escherichia coli polA (W3119 vs P3478), Assay Type: Rec-assay, DNA effects (bacterial DNA repair), Assay Code: RE1T, Evaluation Type: Evaluation A (Pre-1980)) is on record as “no conclusion”.
On to `NCCBr`, for which the mutagenic call (Species/Cell Type: Schizosaccharomyces pombe, Assay Type: Reverse gene mutation, Assay Code: YEZ+, Evaluation Type: Evaluation A (Pre-1980)) was “active; positive”.
On to `Nc1ccn([C@@H]2O[C@H](CO)[C@@H](O)C2O)c(=O)n1` (stereo not given in full), for which the mutagenic call reads like this: (Species/Cell Type: Chinese hamster lung (V79) cells, Assay Type: Forward gene mutation at the HPRT or ouabain locus, Assay Code: V79+, Evaluation Type: Evaluation A (Pre-1980)) “active; positive”; (Species/Cell Type: Drosophila melanogaster, Assay Type: Sex-linked recessive lethal gene mutation, Assay Code: SRLT, Evaluation Type: Evaluation A (Pre-1980)) “no conclusion”; (Species/Cell Type: Ehrlich ascites tumor (mouse) cells, Assay Type: Chromosome aberrations, DNA effects, host-mediated assay, Assay Code: HMH+, Evaluation Type: Evaluation A (Pre-1980)) “active; positive”; (Species/Cell Type: Glycine max (soybean), Assay Type: Gene mutation, Assay Code: GLM-, Evaluation Type: Evaluation A (Pre-1980)) “inactive; negative”; (Species/Cell Type: Human lymphocytes or leukocytes, Assay Type: Chromosome aberrations in vitro, Assay Code: CY7+, Evaluation Type: Evaluation A (Pre-1980)) “active; positive”; (Species/Cell Type: Human lymphocytes, Assay Type: Sister-chromatid exchange (SCE) in vitro, Assay Code: SCL+, Evaluation Type: Evaluation B (Post-1980)) “active; positive”. Further, the mutagenic call is, setting by setting: (Species/Cell Type: Human lymphocytes, Assay Type: Sister-chromatid exchange (SCE) in vitro, Assay Code: SCLT, Evaluation Type: Evaluation A (Pre-1980)) “no conclusion”; under setting [2], “active; positive”; (Species/Cell Type: Human, Assay Type: Sister-chromatid exchange (SCE) in vitro, Assay Code: SC1T, Evaluation Type: Evaluation A (Pre-1980)) “no conclusion”; under setting [6], “active; positive”; (Species/Cell Type: Mouse (C3H/10T1/2) cells, Assay Type: Cell transformation, Assay Code: CTH+, Evaluation Type: Evaluation A (Pre-1980)) “active; positive”; under setting [4], “active; positive”. For the same molecule, the mutagenic call by setting is: (Species/Cell Type: Nonhuman, Assay Type: Sister-chromatid exchange (SCE) in vivo, Assay Code: SC3T, Evaluation Type: Evaluation A (Pre-1980)) “no conclusion”; (Species/Cell Type: Syrian hamster embryo (SA7/SHE) cells, Assay Type: Cell transformation, viral enhanced, Assay Code: CT7+, Evaluation Type: Evaluation A (Pre-1980)) “active; positive”; (Species/Cell Type: Syrian hamster embryo (SHE) cells, Assay Type: Cell transformation, clonal assay, Assay Code: CTC+, Evaluation Type: Evaluation A (Pre-1980)) “active; positive”.
On to `Clc1ccc(Oc2cc(Cl)c(Cl)cc2Cl)cc1`, for which the mutagenic call was “inactive; negative” (Species/Cell Type: Saccharomyces cerevisiae, Assay Type: Forward gene mutation, Assay Code: YEF-, Evaluation Type: Evaluation A (Pre-1980)); “inactive; negative” (Species/Cell Type: Saccharomyces cerevisiae, Assay Type: Mitotic recombination or gene conversion, Assay Code: YEC-, Evaluation Type: Evaluation A (Pre-1980)); “inactive; negative” (Species/Cell Type: Saccharomyces cerevisiae, Assay Type: Mitotic recombination or gene conversion, Assay Code: YEH-, Evaluation Type: Evaluation A (Pre-1980)).
